Test results: patent US20230406883A1, “COMPOUNDS AND THEIR USE IN TREATMENT OF TACHYKININ RECEPTOR MEDIATED DISORDERS” (Embark Biotech ApS, priority 2020, published 2023)
pEC50: −log10 of the molar value. Where “and” joins values, the source holds several entries; their conditions need not be identical. Identical values can stand only once. Numbered stars: 1 amine (or outer) side, 2 acyl side, 3 side chain; on linkers, the order of the positions; unused ones are H or OH. Square brackets hold non-standard residues; d marks the D form. Peptide text beside a SMILES is read from it. * marks the point of attachment. C20 diacid = O=C(O)CCCCCCCCCCCCCCCCCCC(=O)*; C18 diacid = O=C(O)CCCCCCCCCCCCCCCCC(=O)*; C16 diacid = O=C(O)CCCCCCCCCCCCCCC(=O)*; γGlu = O=C(O)[C@H](CCC(=O)[*:2])N[*:1]; C14 diacid = O=C(O)CCCCCCCCCCCCC(=O)*; mTyr = N[C@@H](Cc1cccc(O)c1)C(=O)O; NMeL = CN[C@@H](CC(C)C)C(=O)O; hSer = N[C@@H](CCO)C(=O)O; Nle = CCCC[C@H](N)C(=O)O; AEEA = NCCOCCOCC(=O)O; Aib = CC(C)(N)C(=O)O

What was measured:
Assay in all cases: IP3 assay (inositol trisphosphate, 3H-myoinositol) in transiently transfected COS-7 cells
Assay type in all cases: cell-based
hNK1R = target: T1, hNK1R (Homo sapiens, UniProt P25103); details: COS-7 cells; for pEC50: 0.2% ovalbumin buffer; for hNK1R, IP3 Efficacy: figure legends: percent of 10^-6 M NKA
T1 construct: host or cells: COS-7
T1 sequence (P25103 whole entry): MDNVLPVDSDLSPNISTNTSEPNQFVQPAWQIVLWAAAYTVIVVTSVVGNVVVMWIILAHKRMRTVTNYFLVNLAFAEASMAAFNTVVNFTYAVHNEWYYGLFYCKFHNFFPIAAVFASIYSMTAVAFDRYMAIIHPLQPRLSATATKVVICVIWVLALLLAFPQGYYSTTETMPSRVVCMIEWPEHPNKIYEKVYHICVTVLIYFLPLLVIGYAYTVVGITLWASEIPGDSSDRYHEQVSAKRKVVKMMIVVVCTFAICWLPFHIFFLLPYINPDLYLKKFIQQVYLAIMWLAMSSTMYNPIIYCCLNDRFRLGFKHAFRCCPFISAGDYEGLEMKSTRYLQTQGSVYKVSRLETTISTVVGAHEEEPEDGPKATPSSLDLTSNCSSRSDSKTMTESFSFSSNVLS
Procedure: (§1) Agonist-induced G-protein coupled receptor (GPCR) activation was measured by an Inositol-1,4,5-Trisphosphate [^3H] Radioreceptor Assay (IPs Assay). Assays were carried out using COS-7 cells transiently transfected by calcium phosphate transfection with a vector pcDNA3.1(+) encoding one of the indicated receptors (Genscript). Briefly, DNA mixed with CaCl2 (2 M) and TE-buffer (10 mM Tris-HCl, 1 mM EDTA, pH 7.5) was dropwise added to 2×HBS (50 mM HEPES, 280 mM NaCl, 1.5 mM NaH2PO4, pH 7.2) and incubated for 45 min at room temperature (22±2° C.). The mixture and a final concentration of 100 μM Chloroquine were added to the cells and left to incubate for 5 hours at 37° C. under standard cell culture conditions (10% CO2) before changing medium to fresh medium containing 5 μl/mL Myo-[2-^3H(N)]-inositol (labelling medium).
(§2) The IP3 assay takes advantage of the tachykinin receptors' ability to induce production of the inositol trisphosphate (IP3) second messenger upon agonist (ligand) binding on receptor expressing cells following an initial ^3H-inositol labelling period. In effect this means that production of the second messenger IP3 as a measure of receptor activity can be assessed by counting ^3H-activity.
(§3) Assay solutions used: Wash buffer (HBSS), Assay buffer (HBSS+10 mM LiCl and 0,2% w/v ovalbumin), Lysis buffer (10 mM formic acid), and SPA YSI beads (12.5 mg/ml in H2O). The assay was performed the day after transfection. Briefly, labelling medium was aspirated, and plates were washed ×1 in wash buffer before adding 100 μl assay buffer, pre-incubated for 30 min followed by 120 min incubation with agonist, both at 37° C. After incubation, plates were immediately placed on ice and the incubation medium was aspirated and 40 μl of 10 mM formic acid per well was added. Plates were incubated for at least 30 min on ice. 60 μl (1 mg/well) SPA YSI beads/well was pipetted into a solid white 96 wells plate and 35 μl of the lysis solution was transferred to the plate before covering plates with seal cover and shaking for 10 min. (max speed). Centrifuge plates and leave for 8 hours at room temperature before counting the plates in a MicroBeta plate counter (Perkin Elmer).

hNK3R = target: T2, hNK3R (Homo sapiens, UniProt P29371); details: COS-7 cells; for pEC50: 0.2% ovalbumin buffer, read-out: hNK3, IP3 EC50; for hNK3, IP3 Efficacy: figure legends: percent of 10^-6 M NKA
T2 construct: host or cells: COS-7
T2 sequence (P29371 1-465): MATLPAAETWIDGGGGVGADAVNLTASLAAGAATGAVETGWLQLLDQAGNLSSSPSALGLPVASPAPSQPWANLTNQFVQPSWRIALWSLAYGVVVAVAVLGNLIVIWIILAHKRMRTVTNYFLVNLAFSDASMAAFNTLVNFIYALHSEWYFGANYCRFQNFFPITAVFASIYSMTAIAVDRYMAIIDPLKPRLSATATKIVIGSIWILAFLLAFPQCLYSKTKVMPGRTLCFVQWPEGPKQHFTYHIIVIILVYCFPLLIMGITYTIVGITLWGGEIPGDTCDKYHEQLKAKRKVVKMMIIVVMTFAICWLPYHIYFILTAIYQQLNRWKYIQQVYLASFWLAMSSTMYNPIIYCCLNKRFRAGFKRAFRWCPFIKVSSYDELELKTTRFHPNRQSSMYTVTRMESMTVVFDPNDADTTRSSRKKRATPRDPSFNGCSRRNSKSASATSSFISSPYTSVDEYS
Procedure: as §1, §2, §3

hNK2R = target: T3, hNK2R (Homo sapiens, UniProt P21452); details: COS-7 cells; for pEC50: 0.2% ovalbumin buffer; for hNK2R, IP3 Efficacy: figure legends: percent of 10^-6 M NKA
T3 construct: host or cells: COS-7
T3 sequence (P21452 1-398): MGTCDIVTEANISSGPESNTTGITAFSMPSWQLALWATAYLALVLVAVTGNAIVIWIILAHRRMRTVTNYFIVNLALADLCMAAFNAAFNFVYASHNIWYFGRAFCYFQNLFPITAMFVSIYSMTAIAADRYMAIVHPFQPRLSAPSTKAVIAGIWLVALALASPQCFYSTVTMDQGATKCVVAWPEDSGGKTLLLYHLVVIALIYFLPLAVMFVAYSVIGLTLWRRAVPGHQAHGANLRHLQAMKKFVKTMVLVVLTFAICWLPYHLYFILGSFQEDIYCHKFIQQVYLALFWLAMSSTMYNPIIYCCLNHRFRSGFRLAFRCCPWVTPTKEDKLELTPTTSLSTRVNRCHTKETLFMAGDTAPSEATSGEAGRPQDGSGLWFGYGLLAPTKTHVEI
Procedure: as §1, §2, §3

pEC50 (hNK1R) | hNK1R, IP3 Efficacy (hNK1R) | pEC50 (hNK3R) | hNK3, IP3 Efficacy (hNK3R) [%] | pEC50 (hNK2R) | hNK2R, IP3 Efficacy (hNK2R) [%] | Structure (SMILES)
7.44 | 70% and 72% | 6.95 | 100 | 8.80 | 80 | CCCC[C@H](NC(=O)[C@H](CC(C)C)N(C)C(=O)CNC(=O)[C@@H](NC(=O)[C@H](Cc1ccccc1)NC(=O)[C@H](CCCCN)NC(=O)[C@H](CCC(=O)O)NC(=O)COCCOCCNC(=O)COCCOCCNC(=O)CC[C@H](NC(=O)CCCCCCCCCCCCCCCCC(=O)O)C(=O)O)C(C)C)C(N)=O [compound 335, *Glu;Lys;Phe;Val;Gly;NmLeu;Nle;NH2] ({C18 diacid-γGlu-AEEA-AEEA}-EKFVG[NMeL][Nle]-NH2)
7.64 | 70% | 7.37 | 100 | 8.40 and 8.89 | 80 | CCCC[C@H](NC(=O)[C@H](CC(C)C)N(C)C(=O)CNC(=O)[C@@H](NC(=O)[C@H](Cc1ccccc1)NC(=O)[C@H](CCCNC(=N)N)NC(=O)[C@H](CCC(=O)O)NC(=O)COCCOCCNC(=O)COCCOCCNC(=O)CC[C@H](NC(=O)CCCCCCCCCCCCCCCCC(=O)O)C(=O)O)C(C)C)C(N)=O [compound 337, *Glu;Arg;Phe;Val;Gly;NmLeu;Nle;NH2] ({C18 diacid-γGlu-AEEA-AEEA}-ERFVG[NMeL][Nle]-NH2)
– | 50% | – | 10 | 8.19 | 90 | CCCC[C@H](NC(=O)[C@H](CC(C)C)N(C)C(=O)CNC(=O)[C@@H](NC(=O)[C@H](Cc1ccc(O)cc1)NC(=O)[C@H](CCCNC(=N)N)NC(=O)[C@H](CCC(=O)O)NC(=O)COCCOCCNC(=O)COCCOCCNC(=O)CC[C@H](NC(=O)CCCCCCCCCCCCCCCCC(=O)O)C(=O)O)C(C)C)C(N)=O [compound 357, *Glu;Arg;Tyr;Val;Gly;NmLeu;Nle;NH2] ({C18 diacid-γGlu-AEEA-AEEA}-ERYVG[NMeL][Nle]-NH2)
6.70 | 70% | ~4.33 | 60 | 8.64 | 100 | CCCC[C@H](NC(=O)[C@H](CC(C)C)N(C)C(=O)CNC(=O)[C@@H](NC(=O)[C@H](Cc1cccc(O)c1)NC(=O)[C@H](CCCCN)NC(=O)[C@H](CC(=O)O)NC(=O)COCCOCCNC(=O)COCCOCCNC(=O)CC[C@H](NC(=O)CCCCCCCCCCCCCCCCC(=O)O)C(=O)O)C(C)C)C(N)=O [compound 361, *Asp;Lys;3-OH-Phe;Val;Gly;NmLeu;Nle;NH2] ({C18 diacid-γGlu-AEEA-AEEA}-DK[mTyr]VG[NMeL][Nle]-NH2)
~4.51 | 20% | – | 0 | 8.25 | 75 | CCCC[C@H](NC(=O)[C@H](CC(C)C)N(C)C(=O)CNC(=O)[C@@H](NC(=O)[C@H](Cc1ccc(O)cc1)NC(=O)[C@H](CCCCN)NC(=O)[C@H](CC(=O)O)NC(=O)COCCOCCNC(=O)COCCOCCNC(=O)CC[C@H](NC(=O)CCCCCCCCCCCCCCC(=O)O)C(=O)O)C(C)C)C(N)=O [compound 367, *Asp;Lys;Tyr;Val;Gly;NmLeu;Nle;NH2] ({C16 diacid-γGlu-AEEA-AEEA}-DKYVG[NMeL][Nle]-NH2)
– | 0% | – | 0 | 7.72 | 70 | CCCC[C@H](NC(=O)[C@H](CC(C)C)N(C)C(=O)CNC(=O)[C@@H](NC(=O)[C@H](Cc1ccc(O)cc1)NC(=O)[C@H](CCCCN)NC(=O)[C@H](CC(=O)O)NC(=O)COCCOCCNC(=O)COCCOCCNC(=O)CC[C@H](NC(=O)CCCCCCCCCCCCC(=O)O)C(=O)O)C(C)C)C(N)=O [compound 368, *Asp;Lys;Tyr;Val;Gly;NmLeu;Nle;NH2] ({C14 diacid-γGlu-AEEA-AEEA}-DKYVG[NMeL][Nle]-NH2)
– | 20% | – | 0 | 8.00 | 90 | COc1ccc(C[C@H](NC(=O)[C@H](CC(C)C)N(C)C(=O)CNC(=O)[C@@H](NC(=O)[C@H](Cc2ccccc2)NC(=O)[C@H](CCCCN)NC(=O)[C@H](CC(=O)O)NC(=O)COCCOCCNC(=O)COCCOCCNC(=O)CC[C@H](NC(=O)CCCCCCCCCCCCCCCCC(=O)O)C(=O)O)C(C)C)C(N)=O)cc1 [compound 370, *Asp;Lys;Phe;Val;Gly;NmLeu;4-MeOPhe;NH2] ({C18 diacid-γGlu-AEEA-AEEA}-DKFVG[NMeL]Y(Me)-NH2)
~6.87 | 66% | – | 0 | 8.37 | 89 | CCCC[C@H](NC(=O)[C@H](CC(C)C)NC(=O)C(C)(C)NC(=O)[C@@H](NC(=O)[C@H](Cc1ccccc1)NC(=O)[C@H](CCCCN)NC(=O)[C@H](CC(=O)O)NC(=O)COCCOCCNC(=O)COCCOCCNC(=O)CC[C@H](NC(=O)CCCCCCCCCCCCCCCCC(=O)O)C(=O)O)C(C)C)C(N)=O [compound 373, *Asp;Lys;Phe;Val;Aib;Leu;Nle;NH2] ({C18 diacid-γGlu-AEEA-AEEA}-DKFV[Aib]L[Nle]-NH2)
6.70 | 50% | – | 0 | 8.24 | 90 | CCCC[C@H](NC(=O)[C@H](CC(C)C)N(C)C(=O)CNC(=O)[C@@H](NC(=O)[C@H](Cc1ccc(O)cc1)NC(=O)[C@H](CCCCN)NC(=O)[C@@H](N)CC(=O)O)C(C)C)C(N)=O [compound 374, Asp;Lys;Tyr;Val;Gly;NmLeu;Nle;NH2] (H-DKYVG[NMeL][Nle]-NH2)
7.92 | 110% | ~4.30 | 35 | 9.30 | 100 | CCCC[C@H](NC(=O)[C@H](CC(C)C)N(C)C(=O)CNC(=O)[C@@H](NC(=O)[C@H](Cc1ccccc1)NC(=O)[C@H](CCCCN)NC(=O)[C@@H](N)CC(=O)O)C(C)C)C(N)=O [compound 375, Asp;Lys;Phe;Val;Gly;NmLeu;Nle;NH2]
7.24 | 20% | ~6.80 | 30 | 8.82 | 90 | CCCC[C@H](NC(=O)[C@H](CC(C)C)N(C)C(=O)CNC(=O)[C@@H](NC(=O)[C@H](Cc1ccc(O)cc1)NC(=O)[C@H](CCCCN)NC(=O)[C@H](CC(=O)O)NC(=O)COCCOCCNC(=O)COCCOCCNC(=O)CC[C@H](NC(=O)CCCCCCCCCCCCCCCCCCC(=O)O)C(=O)O)C(C)C)C(N)=O [compound 380, *Asp;Lys;Tyr;Val;Gly;NmLeu;Nle;NH2] ({C20 diacid-γGlu-AEEA-AEEA}-DKYVG[NMeL][Nle]-NH2)

Structure (SMILES) | pEC50 (hNK1R) | hNK1R, IP3 Efficacy (hNK1R) | pEC50 (hNK3R) | hNK3, IP3 Efficacy (hNK3R) [%] | pEC50 (hNK2R) | hNK2R, IP3 Efficacy (hNK2R) [%]
COCC[C@H](NC(=O)[C@H](CC(C)C)N(C)C(=O)CNC(=O)[C@@H](NC(=O)[C@H](Cc1ccc(O)cc1)NC(=O)[C@H](CCCCN)NC(=O)[C@H](CCC(=O)O)NC(=O)COCCOCCNC(=O)COCCOCCNC(=O)CC[C@H](NC(=O)CCCCCCCCCCCCCCCCC(=O)O)C(=O)O)[C@@H](C)O)C(N)=O [compound 381, *Glu;Lys;Tyr;Thr;Gly;NmLeu;Metox;NH2] ({C18 diacid-γGlu-AEEA-AEEA}-EKYTG[NMeL][hSer](Me)-NH2) | – | 0% | – | 0 | 8.03 | 85
